How the values were obtained:
PC3 cells [1] = test: Cell metabolism inhibition assay (Cell titre Blue) with fatty acids; type: cell-based; conditions: 100% = undrugged media
Protocol: A cell metabolism inhibition assay was performed to determine the effect of different fatty acids on cellular metabolic rate. The fatty acids tested were α-Linolenic acid, omega 3 fatty acid (ALA), Arachidonic acid, omega 6 fatty acid (AA), 9Z, 11E conjugated Linoleic acid, omega 7 fatty acid (CLA), Docosahexaenoic acid, omega 3 fatty acid (DHA), Eicosapentaenoic acid, omega 3 fatty acid (EPA), Oleic acid, omega 9 fatty acid (OA), Ricinoleic acid, omega 9 hydroxylated fatty acid (RA).
PC3 cells are from a cell line derived from a hormone refractory prostate cancer and are known to overexpress HSD10. PC3 cells were seeded at a density of 4,000 cells per well in a 96 well plate, and incubated at 37° C., 5% CO2 for 48 hours in standard growth media (F12K nutrient media, 7% Fetal Calf Serum, 2 mM L-Glutamine, 45 mg/L ascorbic acid). The media was then removed by pipette and replaced with the appropriate drug treatment as follows: 20 μM, or 40 μM, or 60 μM, or 80 μM, or 100 μM ALA in PC3 treatment media (F12K nutrient media, 125 uM fatty acid free BSA, 2 mM L-Glutamine, 45 mg/L ascorbic acid); 20 μM, or 40 μM, or 60 μM, or 80 μM, or 100 μM AA in PC3 treatment media; 20 μM, or 40 μM, or 60 μM, or 80 μM, or 100 μM CLA in PC3 treatment media; 20 μM, or 40 μM, or 60 μM, or 80 μM, or 100 μM DHA in PC3 treatment media; 20 μM, or 40 μM, or 60 μM, or 80 μM, or 100 μM EPA in PC3 treatment media; 20 μM, or 40 μM, or 60 μM, or 80 μM, or 100 μM OA in PC3 treatment media; and 20 μM, or 40 μM, or 60 μM, or 80 μM, or 100 μM RA in PC3 treatment media. After incubation in the drug treatment for 72 hours at 37° C., 5% CO2, 50 μL Cell titre Blue Assay Reagent was added to each well and the plate return to incubation at 37° C., 5% CO2, for a further 24 hours, at which time the absorbance at 620 nm was recorded. The reduction of absorbance at 620 nm represents a higher metabolic rate, and the data below has been normalized such that 100% represents cells that have been grown in the presence of undrugged media, and 0% represents wells containing no cells.

PC3 cells [2] = test: Cell growth inhibition, lysed cell LDH assay, prostate cancer cell line; type: cell-based;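 note: 100% is cells receiving no drug treatment and 0% is wells without cells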
Protocol: To determine whether Risperidone could be effective in inhibiting growth of cancer cells overexpressing HSD10, a lysed cell LDH assay was conducted using cells from a PC3 cell line.
PC3 cells are from a cell line derived from a hormone refractory prostate cancer and are known to overexpress HSD10. […] Cells line tests were carried out in presence and absence of testosterone for comparison. After incubation in the drug treatment for 96 hours at 37° C., 5% CO2, the supernatant was removed from all wells of cells, and cells washed with 200 μL PBS.
(§1) After removal of the PBS, cell number was determined using a lysed cell LDH assay (CytoTox 96 Non-radioactive cytotoxicity assay (LDH Assay); Promega, Co., Madison Wis.). Cells were lysed with 0.9% Triton-X in PBS for 2 hours at 37° C., 5% CO2 and 50 μL of this cell lysate was transferred to a fresh 96 well plate. About 50 μL of CytoTox 96 assay reagent was added to the transferred cell lysate and this mixture was incubated at room temperature in the dark for 20 minutes. After the addition of 50 μL stop reagent, the optical absorbance was determined for each incubated mixture at 492 nm. […] The mean and standard error was calculated from at least 3 wells.
To determine the optimal concentration of Risperidone and CLA necessary to inhibit cell growth, a lysed cell LDH assay was conducted using various concentration of Risperidone and CLA. PC3 cells were cultured and a lysed cell LDH assay was conducted as described above, except that the various drug treatments evaluated contained either 0 μM, 12.5 μM, 25 μM, or 50 μM Risperidone in combination with 0 μM, 6.25 μM, 12.5 μM, 25 μM, 50 μM, or 100 μM CLA (see Table 3).
as §1, with “PBS from the cell cultures described above,” for “PBS,”, “assay.” for “assay (CytoTox 96 Non-radioactive cytotoxicity assay (LDH Assay); Promega, Co., Madison Wis.).”

MCF7 cells = test: Cell growth inhibition, lysed cell LDH assay, breast cancer cell line; type: cell-based; conditions: 50 μM Risperidone and/or 50 μM CLA, 1 μM Testosterone (T) where added, 96 hours;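 note: 100% is cells receiving no drug treatment and 0% is wells without cells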
Protocol: (§2) To determine whether Risperidone could be effective in inhibiting growth of cancer cells overexpressing HSD10, a lysed cell LDH assay was conducted using cells taken from a prostate cancer cell line, a lung cancer cell line, a breast cancer cell line, an ovarian cancer cell line, each of which was known to overexpress HSD10, and a non-cancerous cell line.
(§3) After incubation in the drug treatment for 96 hours at 37° C., 5% CO2, the supernatant was removed from all wells of cells, and cells washed with 200 μL PBS.
as §1, with “PBS from the cell cultures described above,” for “PBS,”, “assay.” for “assay (CytoTox 96 Non-radioactive cytotoxicity assay (LDH Assay); Promega, Co., Madison Wis.).”

OVCAR-3 cells = test: Cell growth inhibition, lysed cell LDH assay, ovarian cancer cell line; type: cell-based; conditions: 50 μM Risperidone and/or 50 μM CLA, 1 μM Testosterone (T) where added, 96 hours;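 note: 100% is cells receiving no drug treatment and 0% is wells without cells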
Protocol: as §2, §3
as §1, with “PBS from the cell cultures described above,” for “PBS,”, “assay.” for “assay (CytoTox 96 Non-radioactive cytotoxicity assay (LDH Assay); Promega, Co., Madison Wis.).”

VERO cells = test: Cell growth inhibition, lysed cell LDH assay, non-cancerous cell line; type: cell-based;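 for effect on growth of cells from the non-cancerous cell line VERO: 100% is cells receiving no drug treatment and 0% is wells without cells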
Protocol: as §2, §3
as §1, with “PBS from the cell cultures described above,” for “PBS,”, “assay.” for “assay (CytoTox 96 Non-radioactive cytotoxicity assay (LDH Assay); Promega, Co., Madison Wis.).”

PC-3M-luc cells = test: Orthotopic prostate tumor mouse xenograft model; conditions: single drug
Protocol: Immunodeficeint male mice (athymic nude mice) were acclimated to the laboratory for at least one week prior to implantation of tumor. PC-3M-luc cells obtained directly from in vitro culture were then injected into the prostate on Day 0. Animals were divided into six groups of 12 mice each. Primary tumor size and metastases were assessed by bioluminescence measurements on day 6, 13, 20, 27, 34, and 40. On day 7 a five week treatment regime was initiated. Both individual drug and high and low dose combination were examined by administering the drugs twice daily on an individual body weight basis using a dose escalation protocol (Table 7). If tumors grew above a pre-determined level, or mice lost more than 10% of bodyweight, they were culled. The primary tumor was excised, weighed and measured. Individual organs were imaged to assess metastatic burden.

Structure (SMILES): CCCCCC/C=C/C=C\CCCCCCCC(=O)O [CLA, 9Z, 11E conjugated Linoleic acid]
- Cellular Metabolic Activity (PC3 cells [1]; 20 μM fatty acid): 86 ± 2.4%
- Cellular Metabolic Activity (PC3 cells [1]; 40 μM fatty acid): 71 ± 3.8%
- Cellular Metabolic Activity (PC3 cells [1]; 60 μM fatty acid): 59 ± 2.8%
- Cellular Metabolic Activity (PC3 cells [1]; 80 μM fatty acid): 63 ± 4.0%
- Cellular Metabolic Activity (PC3 cells [1]; 100 μM fatty acid): 67 ± 5.0%
- Percentage of Lysed Cells (PC3 cells [2]; 0 μM Risperidone, 6.25 μM CLA (Table 4)): 96 ± 0.7%
- Percentage of Lysed Cells (PC3 cells [2]; 0 μM Risperidone, 12.5 μM CLA (Table 4)): 90 ± 2.7%
- Percentage of Lysed Cells (PC3 cells [2]; 0 μM Risperidone, 25 μM CLA (Table 4)): 112 ± 9.5%
- Percentage of Lysed Cells (PC3 cells [2]; 0 μM Risperidone, 50 μM CLA (Table 4)): 103 ± 9.3%
- Percentage of Lysed Cells (PC3 cells [2]; 0 μM Risperidone, 100 μM CLA (Table 4)): 66 ± 11.8%
- Percentage of Lysed Cells (PC3 cells [2]; 12.5 μM of each drug, 96 hours, 100% = no drug treatment (Table 3)): 109 ± 0.56%
- Percentage of Lysed Cells (PC3 cells [2]; 25 μM of each drug, 96 hours, 100% = no drug treatment (Table 3)): 112 ± 1.1%
- growth inhibition of PC3 cells (PC3 cells [2]; 50 μM): no effect alone
- Percentage of Lysed Cells (PC3 cells [2]; 50 μM of each drug, 96 hours, 100% = no drug treatment (Table 3)): 107 ± 2.4%
- Percentage of Lysed Cells (PC3 cells [2]; PC3, 50 μM Risperidone and/or 50 μM CLA, 1 μM Testosterone (T) where added, 96 hours (Table 5)): 107 ± 2.4%
- Percentage of Lysed Cells (MCF7 cells): 56 ± 2.6%
- Percentage of Lysed Cells (OVCAR-3 cells): 87 ± 6.0%
- effect on growth of cells from the non-cancerous cell line VERO (VERO cells; 50 μM): neither Risperidone nor CLA had any measurable effect
- Percentage of Lysed Cells (VERO cells; VERO, 50 μM Risperidone and/or 50 μM CLA, 1 μM Testosterone (T) where added, 96 hours): 98 ± 2.7%
- body weight throughout the study (PC-3M-luc cells; by Day 40): maintained a constant weight
- animal loss (PC-3M-luc cells; by day 34): about 10%
- Tumor Growth Inhibition (PC-3M-luc cells; calculated on Day 34, dosing per Table 7, listed as Rumenic Acid): 21%
- Animal Survival (overall survivorship) (PC-3M-luc cells; day 40, dosing per Table 7, listed as Rumenic Acid): 45%

Reference: patent publication US10111877B2, “Modulators of androgen synthesis” (Tangent Reprofiling Limited, priority 2012, dated 2018)
